According to patent US11421010B2, “T cells expressing membrane-anchored IL-12 for the treatment of cancer” (Board of Regents, The University of Texas System, priority 2016, dated 2022):

Assays:
[1] = test system: LLC cells; assay: Cytotoxic T-lymphocyte assay against CFSE-labeled LLC cells; assay type: cell-based, mouse; details: E:T 5:1, 10:1, 25:1, 5 h
Experimental: FIGS. 25A-25D: Augmentation of CD8^+ T-cell antitumor cytolytic activity by treatment with CD80-Fc. (A-C) Induction of antitumor cytolytic activity by mouse CD8^+ T cells after exposure to Rae-1^+ LLC cells. Splenocytes were collected from LLC-bearing mice on day 14 after tumor-cell inoculation. CD8^+ T cells were isolated from splenocytes and treated with control Fc or CD80-Fc in the presence or absence of an anti-NKG2D antibody or JSI-124 for 24 h. (A) CD8^+ T cells were co-incubated with CFSE-labeled LLC cells at a ratio of 25:1 (E:T) for 5 h. The cell culture medium was subjected to ELISA analysis of perforin. The bar graphs show the median (±SEM) normalized concentration of perforin (n=3). (B) Flow cytometry analysis of NKG2D ligand Rae-1 expression on LLC tumor cells. (C) CD8^+ T cells were co-incubated with CFSE-labeled LLC cells at ratios of 5:1, 10:1, and 25:1 (E:T) for 5 h. […] Survival of the target cells was measured as the percentage of normalized target cells that remained after incubation with CD8^+ T cells. […]
Because increased perforin expression by immune cells often indicates enhanced antitumor cytolytic activity, the cytotoxic T-lymphocyte activity of mouse CD8^+ T cells was measured after CD80-Fc-based treatment. […] The survival of target cells was determined as the percentage of normalized target cells that remained after incubation with CD8^+ T cells. […]

[2] = test system: Lck/JAK/STAT3 signaling; assay: NKG2D expression with CD80-Fc plus inhibitors of STAT3 activation, mouse CD8^+ T cells; assay type: cell-based; details: 24 h
Experimental: (§1) FIGS. 24A-24B: Blockade of Lck/JAK/STAT3 signaling abolishes CD28 activation-mediated induction of NKG2D expression on mouse and human CD8^+ T cells. (A, B) Mouse (A) and human (B) CD8^+ T cells were stimulated with anti-CD3 microbeads and treated with control Fc or CD80-FC in the presence or absence of the pharmacologic inhibitor JSI-124, PP2, or AG-490 for 24 h. The CD80+ vehicle has the highest expression of NKG2D. NKG2D expression on the surface of CD8^+ T cells was measured using flow cytometry. The bar graphs show the median (±SEM) MFI of NKG2D (n=3). The data are representative of three repeated experiments.
(§2) If NKG2D expression is induced by CD80-Fc-based treatment via pSTAT3, inhibition of any upstream activators of STAT3 should abrogate NKG2D induction. A time course study was performed to assess the toxicity of the pharmacologic inhibitors to mouse and human CD8^+ T cells. […] Therefore, to test the hypothesis, mouse and human CD8^+ T cells were enriched and treated with control Fc, CD80-Fc plus control vehicle, or CD80-Fc plus inhibitors of STAT3 activation, including PP2, AG490, and JSI-124, for 24 h.

[3] = test system: STAT3; assay: Immunoblot of pSTAT3 with pharmacologic inhibitors, human CD8^+ T cells; assay type: cell-based; details: PP2 (1 nM); 1 h
Experimental: (§3) FIG. 23: Elevated STAT3 phosphorylation resulting from CD80 binding-mediated CD28 activation via the tyrosine kinase Lck/JAK/STAT3 signaling pathway. The effect of CD28 activation and treatment with pharmacologic inhibitors on the expression of pSTAT, total STAT, and b-actin according to immunoblot assay. Mouse and human CD8^+ T cells were stimulated with anti-CD3 microbeads and treated with ctrl Fc or CD80-Fc in the presence or absence of the pharmacologic inhibitor JSI-124 […], PP2 (1 nM), or AG-490 ([…]) for 24 h. Vehicle control is included. The intensity quantification shown ([…]/intensity of β-actin) represents the mean intensity from three repeated experiments.
(§4) Because NKG2D expression on NK cells is regulated by pSTAT3, the next question was whether pSTAT3 expression is induced in CD8^+ T cells by activation of CD28. To address this question, the pSTAT3 expression was measured in both mouse and human CD8^+ T cells after incubation with control IgG or CD80-Fc for 15 and 30 min, as well as 1 and 2 h via intracellular flow cytometric staining. […] Given that CD28 activation in CD8^+ T cells results in STAT3 phosphorylation, it was sought to determine how CD28 activates JAK/STAT3 signaling in CD8^+ T cells. In these cells, the co-stimulatory receptor CD28 strengthens TCR signaling via sustained activation of the tyrosine kinase Lck which in turn recruits and activates ZAP70. […] Thus a pharmacologic model was established to determine whether Lck/ZAP70, as an upstream kinase cascade, activates STAT3 in CD8^+ T cells. Mouse and human CD8^+ T cells were enriched (FIG. 29) and stimulated with anti-CD3 microbeads and incubated with control IgG or CD80-Fc in the presence or absence of the pharmacologic inhibitor PP2, AG-490, or JSI-124 for 1 h. PP2 was employed because it is a specific Src-family kinase inhibitor sensitive to blockade of Lck activation. Also, AG-490 can inhibit activation of JAK/STAT3 signaling. […] To validate the crucial role of pSTAT3, the expression of pSTAT1 and pSTAT5 was also assessed. […]

[4] = test system: Lck/JAK/STAT3 signaling; assay: NKG2D expression with CD80-Fc plus inhibitors of STAT3 activation, human CD8^+ T cells; assay type: cell-based; details: 24 h
Experimental: as §1, §2

[5] = test system: STAT3; assay: Immunoblot of pSTAT3 with pharmacologic inhibitors, mouse CD8^+ T cells; assay type: cell-based; details: PP2 (1 nM); 1 h
Experimental: as §3, §4

[6] = Degranulation assay (CD107a), human CD8^+ T cells exposed to K562 cells; assay type: cell-based; details: 24 h treatment
Experimental: (§5) FIGS. 25A-25D: Augmentation of CD8^+ T-cell antitumor cytolytic activity by treatment with CD80-Fc. (A-C) Induction of antitumor cytolytic activity by mouse CD8^+ T cells after exposure to Rae-1^+ LLC cells. Splenocytes were collected from LLC-bearing mice on day 14 after tumor-cell inoculation. CD8^+ T cells were isolated from splenocytes and treated with control Fc or CD80-Fc in the presence or absence of an anti-NKG2D antibody or JSI-124 for 24 h. (A) CD8^+ T cells were co-incubated with CFSE-labeled LLC cells at a ratio of 25:1 (E:T) for 5 h. The cell culture medium was subjected to ELISA analysis of perforin. The bar graphs show the median (±SEM) normalized concentration of perforin (n=3). (B) Flow cytometry analysis of NKG2D ligand Rae-1 expression on LLC tumor cells. (C) CD8^+ T cells were co-incubated with CFSE-labeled LLC cells at ratios of 5:1, 10:1, and 25:1 (E:T) for 5 h. After incubation, the cells were stained with PI (1 mg/mL). […] Survival of the target cells was measured as the percentage of normalized target cells that remained after incubation with CD8^+ T cells. […]
(§6) In a similar manner, the cytolytic activity of human CD8^+ T cells was assessed in terms of their degranulation upon CD28 activation. The ability of CD8^+ T cells to undergo degranulation was evaluated in response to exposure to target tumor cells by the induction of cell surface marker CD107a. […]

[7] = test system: K562 cells; assay: as above; assay type: cell-based; details: after exposure to target cells, ratio 1:1, 4 h
Experimental: as §5, §6

[8] = test system: mouse CD8^+ T cells; assay: CD8^+ T cell viability after JSI-124 (7-AAD), mouse; assay type: cell-based; details: 48 h, JSI-124 0.1 μM, versus vehicle control
Experimental: (§7) FIGS. 30A-30B: CD8^+ T cell viability after JSI-124 treatment. Freshly enriched mouse (A) and human (B) CD8^+ T cells were treated with vehicle control or JSI-124 (0.1 μM) for 1, 2, 3, and 4 days. Cell viability was assessed after 7-AAD staining via flow cytometry.
as §2

[9] = test system: human CD8^+ T cells; assay: CD8^+ T cell viability after JSI-124 (7-AAD), human; assay type: cell-based; details: 48 h, JSI-124 0.1 μM, versus vehicle control
Experimental: as §7, §2

SMILES | cytolytic activity against LLC cells [1] | NKG2D expression on CD8^+ T cells [2] | phosphorylation of STAT3 in response to CD80-Fc [3] | NKG2D expression on CD8^+ T cells [4] | phosphorylation of STAT3 in response to CD80-Fc [5] | NKG2D expression [6] | degranulation (CD107a) [7] | cell viability [8] | cell viability [9]
CC(C)(O)/C=C/C(=O)[C@](C)(O)[C@H]1[C@H](O)C[C@@]2(C)[C@@H]3CC=C4[C@@H](C=C(O)C(=O)C4(C)C)[C@]3(C)C(=O)C[C@]12C [JSI-124] | impaired the cytolytic activity | dramatic decreases | completed abolished | dramatic decreases | completed abolished | abolished NKG2D expression | reduced degranulation | markedly decreased | markedly decreased
N#C/C(=C/c1ccc(O)c(O)c1)C(=O)NCc1ccccc1 [AG-490] |  | dramatic decreases | completed abolished | dramatic decreases | completed abolished |  |  |  | 
CC(C)(C)n1nc(-c2ccc(Cl)cc2)c2c(N)ncnc21 [PP2] |  | dramatic decreases | completed abolished | dramatic decreases | completed abolished |  |  |  | 
